Experimental findings from patent US5349127A, “Expression of herbicide metabolizing cytochromes P450” (priority 1992, dated 1994) are described below.

Data set [1] deals with S. griseus PH3832. The data set can be described thus: Metabolism of 10001 by strains transformed with pPAT108 (Example 14). Format: in vitro ADME, Streptomyces griseus. The settings on record: substrate 10001 120 ug/ml. On the procedure: (§1) S. griseolus PH2003, S. griseus PH4001, S. ambofaciens PH4002, and S. lividans JI1326 were transformed with the plasmid pPAT108. The transformed S. griseolus strain, PH3826, was cultured for 24 hours in 150 mls of sporulation broth with 5 ug/ml thiostrepton. The transformed S. griseus strain, PH3832, and the transformed S. ambofaciens strain, PH3834, were cultured for 24 hours in 150 mls of trypticase soy broth with 5 ug/ml thiostrepton. The transformed S. lividans strain, PH3822, was similarly cultured in 150 mls of YEME broth with 5 ug/ml thiostrepton. Three hours before harvesting the cells, 50 mls of fresh medium of the same type with 5 ug/ml thiostrepton was added to each culture. The cells from each of the cultures were harvested by centrifugation, washed twice with 50 mMMOPS, pH7.2 and resuspended in five cell volumes of MOPS containing 0.2% glucose and 120 ug/ml of the sulfonylurea 10001. The cell suspensions were incubated at 30° C. with shaking and aliquots were removed at 0.5, 1, 2 and 4 hours. The supernatant of each aliquot was analyzed by HPLC and the concentration of the sulfonylurea compound 10001 and its metabolites 10002 and 10003 were determined.

For data set [2], the system named is leaves of transformed tobacco. The data set can be described thus: Metabolism of 10001 in excised tobacco leaves (Example 20). Format: in vitro ADME, Nicotiana tabacum. The conditions noted are these: plants transformed with pSSU-SU111 and pCab-SU131, 21 hours. On the procedure:
Plants were grown from tobacco seed produced by self-pollinated transformed plants in Metro-Mix® 350 under 16 hour light (light intensity of 400 μEinsteins per second per square meter at pot level, 22° C. and 80% relative humidity) followed by 8 hours of dark (18° C. and 70 to 80% relative humidity) and watered three times daily with half strength Hoagland's solution. The presence of the cytochrome P450 protein in individual plants was confirmed by Western blot analysis before testing for sulfonylurea metabolism.
During growth, the tobacco plants produced leaves attached to the main stalk, none of which were of the same age or size. […]
Individual leaves were extracted with 30 ml acetone/water (80%/20% by volume) for 1 minute in a Sorvall® Omni-Mixer. […] 10015 and its metabolites were detected at 254 nm while ^14 C-10001 and its metabolites were detected with a Radiomatic Flo-One® detector. A diode array detector was used in separate experiments to obtain the absorbance spectra of the 10015 metabolite and an 10014 standard in the HPLC analysis of several extracts (HPLC method is described in Romesser et al., Biochem. Biophys. Res. Comm., 140:650-659 (1986)). Comparison of the metabolite absorbance spectrum with that of the 10014 confirmed the metabolite's identity. […]

For data set [3], the system named is S. griseolus PH3809. Put plainly: Metabolism of 10001 by strains transformed with pCS325 (Example 15). It counts as in vitro ADME, Streptomyces griseolus. The conditions noted are these: substrate 10001. How it is done:
as §1
S. griseolus PH2003, S. griseus PH4001, S. ambofaciens PH4002, and S. lividans JI1326 were transformed with the plasmid pCS325. Cells of the transformed strains of S. griseolus PH3809, S. griseus PH3817, S. ambofaciens PH3818, and S. lividans PH3816, were grown and treated as described in Example 14, and the concentrations of the sulfonylurea compound 10001 and its metabolites 10002 and 10003 were determined.

`CCOC(=O)c1ccccc1S(=O)(=O)NC(=O)Nc1nc(Cl)cc(OC)n1` [compound 10001, N-[(4-chloro-6-methoxy-pyrimidin-2-yl)aminocarbonyl]-2-ethoxycarbonylbenzenesulfonamide]: the concentration in supernatant came to 281 µM in data set [1] (0.5 h); 238 µM in data set [1] (1.0 h); 177 µM in data set [1] (2.0 h); 77 µM in data set [1] (4.0 h); 175 µM in data set [3] (0.5 h); 108 µM in data set [3] (1.0 h). Moreover, the concentration in supernatant in data set [3] (2.0 h) and in data set [3] (4.0 h) was 0 µM throughout. The “extent of metabolism versus leaf tissue of pAGS112 plants” value in data set [2] was “metabolized to a significantly greater extent”.
On to `CCOC(=O)c1ccccc1S(=O)(=O)NC(=O)Nc1nc(O)cc(Cl)n1` [compound 10002, N-[(4-chloro-6-hydroxy-pyrimidin-2-yl)aminocarbonyl]-2-ethoxycarbonylbenzenesulfonamide], for which the “metabolite production versus leaf tissue of pAGS112 plants” value in data set [2] (substrate 10001) is listed as “more 10002 was produced”.
Regarding `COc1cc(Cl)nc(NC(=O)NS(=O)(=O)c2ccccc2C(=O)O)n1` [compound 10003, N-[(4-chloro-6-methoxy-pyrimidin-2-yol)aminocarbonyl]-2-carboxybenzenesulfonamide], the concentration in supernatant in data set [1] (0.5 h) stood at 9 µM; in data set [1] (1.0 h), 26 µM; in data set [1] (2.0 h), 46 µM; in data set [1] (4.0 h), 80 µM; in data set [3] (0.5 h) it was 6 µM; in data set [3] (1.0 h), 16 µM. For the same compound, the results for the concentration in supernatant in data set [3] (2.0 h) and in data set [3] (4.0 h) were 24 µM and 25 µM, respectively.
